Where “and” joins values, the source holds several entries; their conditions need not be identical. Identical values can stand only once. Inconclusive results and toxic doses are left out. Rule as the data show it: active = T/C of 150% or more; inactive = T/C below 125%.
Tested on: L1210 leukemia ip in BDF1 mice, survival T/C
Assay: NCI In Vivo Anticancer Drug Screen. Data for tumor model L1210 Leukemia (intraperitoneal) in B6D2F1 (BDF1) mice
Details: endpoint: mean survival time, higher = longer survival
Summary of the method: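 Each compound was tested against a transplantable tumor grown in mice. The endpoint was survival, with treated animals benchmarked against vehicle controls as a simple ratio.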

[1] = dose: 100.0 mg/kg/injection, schedule: Q04DX003 (ip), vehicle: Klucel (hydroxypropylcellulose) (HPC)
[2] = dose: 200.0 mg/kg/injection, schedule: Q04DX003 (ip), vehicle: Klucel (hydroxypropylcellulose) (HPC)
[3] = dose: 400.0 mg/kg/injection, schedule: Q04DX003 (ip), vehicle: Klucel (hydroxypropylcellulose) (HPC)
[4] = dose: 50.0 mg/kg/injection, schedule: Q04DX003 (ip), vehicle: Klucel (hydroxypropylcellulose) (HPC)
[5] = dose: 25.0 mg/kg/injection, schedule: Q01DX Z (ip), vehicle: carboxymethylcellulose (CMC)
[6] = dose: 50.0 mg/kg/injection, schedule: Q01DX Z (ip), vehicle: carboxymethylcellulose (CMC)
[7] = dose: 100.0 mg/kg/injection, schedule: Q01DX Z (ip), vehicle: carboxymethylcellulose (CMC)
[8] = dose: 100.0 mg/kg/injection, schedule: Q01DX009 (ip), vehicle: Klucel (hydroxypropylcellulose) (HPC)
[9] = dose: 400.0 mg/kg/injection, schedule: Q01DX009 (ip), vehicle: Klucel (hydroxypropylcellulose) (HPC)
[10] = dose: 100.0 mg/kg/injection, schedule: Q04DX002 (ip), vehicle: saline with Tween-80
[11] = dose: 200.0 mg/kg/injection, schedule: Q04DX002 (ip), vehicle: saline with Tween-80
[12] = dose: 400.0 mg/kg/injection, schedule: Q04DX002 (ip), vehicle: saline with Tween-80
[13] = dose: 100.0 mg/kg/injection, schedule: Q01DX001 (ip), vehicle: saline
[14] = dose: 200.0 mg/kg/injection, schedule: Q01DX001 (ip), vehicle: saline
[15] = dose: 400.0 mg/kg/injection, schedule: Q01DX001 (ip), vehicle: saline
[16] = dose: 50.0 mg/kg/injection, schedule: Q01DX001 (ip), vehicle: saline

Measured: T/C

CN(C)C(=S)Oc1ccc(N)cc1
inactive: [1] 94 % of control | [2] 101 % of control | [3] 94 % of control

COc1ncnc(Cl)c1[N+](=O)[O-]
inactive: [4] 92 % of control | [1] 92 % of control and 86 % of control | [2] 97 % of control and 91 % of control

CCOC(=O)CCCc1ccc(N/N=N/c2nc[nH]c2C(N)=O)cc1
inactive: [5] 94 % of control | [6] 88 % of control | dose: 75.0 mg/kg/injection, schedule: Q01DX Z (ip), vehicle: carboxymethylcellulose (CMC) 88 % of control | [7] 103 % of control | dose: 200.0 mg/kg/injection, schedule: Q01DX Z (ip), vehicle: carboxymethylcellulose (CMC) 88 % of control

COC(=O)c1ccccc1NC(=S)NC(=O)/C=C/c1ccccc1
inactive: [8] 94 % of control | [1] 97 % of control | dose: 200.0 mg/kg/injection, schedule: Q01DX009 (ip), vehicle: Klucel (hydroxypropylcellulose) (HPC) 103 % of control | [2] 95 % of control | [9] 106 % of control | [3] 91 % of control

CC1(C)OC2OC(/C=C\C=O)C3OC(C)(C)OC3C2O1 (stereo not given)
inactive: dose: 100.0 mg/kg/injection, schedule: Q04DX003 (ip), vehicle: acetone 100 % of control | dose: 200.0 mg/kg/injection, schedule: Q04DX003 (ip), vehicle: acetone 104 % of control

O=Cc1csc2ncccc12
inactive: dose: 100.0 mg/kg/injection, schedule: Q04DX003 (ip), vehicle: saline with Tween-80 103 % of control | dose: 200.0 mg/kg/injection, schedule: Q04DX003 (ip), vehicle: saline with Tween-80 100 % of control | dose: 400.0 mg/kg/injection, schedule: Q04DX003 (ip), vehicle: saline with Tween-80 105 % of control

CCCC(=O)N1CCCCCC1
inactive: [10] 92 % of control | [11] 113 % of control | [12] 95 % of control

NC(=O)C(Cc1ccc(O)cc1)N(CCO)CCO (stereo not given)
inactive: [13] 101 % of control | [14] 101 % of control | [15] 104 % of control

Cc1ccc(NC(=O)NCCCOc2ccc(N3C(N)=NC(N)=NC3(C)C)cc2Cl)cc1S(=O)(=O)F
inactive: [16] 93 % of control | [13] 98 % of control | [14] 97 % of control

NCCNCCN
inactive: [16] 102 % of control | [13] 116 % of control | [14] 104 % of control | [15] 108 % of control

O=C(ON(Cc1ccccc1)Cc1ccccc1)c1ccccc1
inactive: dose: 100.0 mg/kg/injection, schedule: Q01DX001 (ip), vehicle: other 103 % of control | dose: 200.0 mg/kg/injection, schedule: Q01DX001 (ip), vehicle: other 100 % of control | dose: 400.0 mg/kg/injection, schedule: Q01DX001 (ip), vehicle: other 103 % of control

CCCCCCC(=O)N(CCCC)CCCC
inactive: dose: 100.0 mg/kg/injection, schedule: Q01DX001 (ip), vehicle: carboxymethylcellulose (CMC) 109 % of control | dose: 100.0 mg/kg/injection, schedule: Q01DX009 (ip), vehicle: carboxymethylcellulose (CMC) 100 % of control and 91 % of control | dose: 100.0 mg/kg/injection, schedule: Q04DX003 (ip), vehicle: carboxymethylcellulose (CMC) 103 % of control | dose: 200.0 mg/kg/injection, schedule: Q01DX001 (ip), vehicle: carboxymethylcellulose (CMC) 95 % of control | dose: 200.0 mg/kg/injection, schedule: Q01DX009 (ip), vehicle: carboxymethylcellulose (CMC) 96 % of control and 104 % of control | dose: 200.0 mg/kg/injection, schedule: Q04DX003 (ip), vehicle: carboxymethylcellulose (CMC) 94 % of control | dose: 400.0 mg/kg/injection, schedule: Q01DX001 (ip), vehicle: carboxymethylcellulose (CMC) 98 % of control | dose: 400.0 mg/kg/injection, schedule: Q04DX003 (ip), vehicle: carboxymethylcellulose (CMC) 92 % of control

CCc1nc(N[N+](=O)[O-])nc(CC)c1-c1ccc([N+](=O)[O-])cc1O
inactive: [10] 97 % of control | [11] 87 % of control | [12] 95 % of control

NC(=O)NOCC1NC(=O)NC1=O (stereo not given)
inactive: dose: 100.0 mg/kg/injection, schedule: Q01DX009 (ip), vehicle: saline 96 % of control | dose: 200.0 mg/kg/injection, schedule: Q01DX009 (ip), vehicle: saline 102 % of control | dose: 400.0 mg/kg/injection, schedule: Q01DX009 (ip), vehicle: saline 102 % of control

Nc1nc(N)nc(-c2ccc(NC(=O)c3ccccc3[N+](=O)[O-])cc2)n1
inactive: [4] 100 % of control | dose: 100.0 mg/kg/injection, schedule: Q01DX001 (ip), vehicle: Klucel (hydroxypropylcellulose) (HPC) 97 % of control | [1] 106 % of control | dose: 200.0 mg/kg/injection, schedule: Q01DX001 (ip), vehicle: Klucel (hydroxypropylcellulose) (HPC) 95 % of control | [2] 103 % of control

C1CCC(C2CCCC[N-]2)[N-]C1.C1CCC(C2CCCC[N-]2)[N-]C1.C1CCC(C2CCCC[N-]2)[N-]C1.[Fe+6] (stereo not given)
inactive: dose: 10.0 mg/kg/injection, schedule: Q01DX001 (ip), vehicle: saline 98 % of control | dose: 20.0 mg/kg/injection, schedule: Q01DX001 (ip), vehicle: saline 104 % of control

CCSCCOP(=S)(N(CC)CC)N(CC)CC
inactive: [10] 88 % of control | [11] 95 % of control | [12] 104 % of control

CCO/C(C)=N/c1n[n+]([O-])ccc1C
inactive: dose: 40.0 mg/kg/injection, schedule: Q04DX002 (ip), vehicle: saline 104 % of control | dose: 80.0 mg/kg/injection, schedule: Q04DX002 (ip), vehicle: saline 96 % of control | dose: 160.0 mg/kg/injection, schedule: Q04DX002 (ip), vehicle: saline 104 % of control

COc1ccc(/C=N/NC(=O)CNC(=O)c2ccc(Cl)cc2Cl)cc1OC
inactive: dose: 50.0 mg/kg/injection, schedule: Q01DX009 (ip), vehicle: saline with Tween-80 91 % of control | dose: 100.0 mg/kg/injection, schedule: Q01DX009 (ip), vehicle: saline with Tween-80 86 % of control | dose: 200.0 mg/kg/injection, schedule: Q01DX009 (ip), vehicle: saline with Tween-80 86 % of control

CC(C)(c1ccccc1)C(C)(C)c1ccccc1
inactive: [8] 91 % of control | [1] 92 % of control | [2] 96 % of control | [9] 89 % of control | [3] 96 % of control

CCC(C)C(NN)C(=O)O (stereo not given)
inactive: dose: 12.0 mg/kg/injection, schedule: Q01DX Z (ip), vehicle: carboxymethylcellulose (CMC) 113 % of control | [5] 112 % of control | [6] 110 % of control | [7] 118 % of control | dose: 200.0 mg/kg/injection, schedule: Q01DX015 (ip), vehicle: carboxymethylcellulose (CMC) 104 % of control

NCCCCC(N)C(=O)NCCCCCCNCCCCCCNC(=O)C(N)CCCCN (stereo not given)
inactive: dose: 10.0 mg/kg/injection, schedule: Q01DX Z (ip), vehicle: saline 95 % of control | dose: 30.0 mg/kg/injection, schedule: Q01DX Z (ip), vehicle: saline 95 % of control | [13] 90 % of control | dose: 100.0 mg/kg/injection, schedule: Q01DX Z (ip), vehicle: saline 95 % of control | [14] 103 % of control

N#CCC(C(=O)c1cccnc1)c1ccccc1 (stereo not given)
inactive: dose: 100.0 mg/kg/injection, schedule: Q04DX002 (ip), vehicle: gum acacia 104 % of control | dose: 200.0 mg/kg/injection, schedule: Q04DX002 (ip), vehicle: gum acacia 87 % of control

Source: PubChem BioAssay AID248 (DTP/NCI, 2004)
